In patent US7799799B2, “Indolizine derivatives, method for preparing same, and therapeutic compositions comprising same” (Sanofi-Aventis, priority 2005, dated 2010):
Values after ≈ are worked out from the molar mass of the structure shown. Where a name gives a salt, the structure may show the parent alone.

What was measured:
[1] = at a pH of 3; cited from earlier work
[2] = Solubility test at pH=4 from phosphate buffer pH 6 0.1M, by HPLC; assay type: physicochemical; conditions: for solubility at 5 min: aqueous buffer, thermodynamic from solid, phosphate buffer pH 6 0.1M, HPLC, first figure of the S/pH cell, the pH of the sample is the second; for pH (of the solubility sample): second figure of the S/pH cell, pH noted for the solubility sample
Method: The results for solubility, S, and pH are shown in the table below and are expressed in mg/ml.
A phosphate buffer, pH6, 0.1M, was prepared by adding 6.15 ml of 0.1M Na2HPO4 to 43.85 ml of 0.1M NaH2PO4. The solution was made up to 100 ml with filtered water using a Millipore system (trade mark).
Reference (Test Product in a Concentration in which the Latter is Soluble and which Acts as an Internal Reference)
About 0.2 mg (in a boat) was weighed out exactly and diluted in 1 ml of H2O/CH3CN: (50:50), i.e. 0.2 mg/ml, then the sample was subjected to ultrasound for 5 minutes.
About 4 mg (in a boat) was weighed out exactly and diluted in 400 μl (i.e. 10 mg/ml) of pH6 phosphate buffer (0.1M), then the sample was subjected to ultrasound for 5 minutes.
The pH was noted and if the pH was below 4, 1 μl of NaOH 1N was added (from 1 μl in 1 μl) until the pH was more than 4, then the pH was noted again. The solution (0.45 μm) was filtered then if necessary diluted with the phosphate buffer pH6. (If the product re-precipitated after diluting, the diluted sample was ignored, the mother solution was used and the solubility was determined at a wavelength other than λmax, to avoid saturating the signal.
The solubility of the compound was then determined by HPLC under the following conditions:
Instrument: Agilent 1100 chromatograph
Column temperature: 30° C. Flow rate: 0.8 ml/min Detection: λ=230 nm Injection volume: 5 μl

| solubility at 5 min [2] [µg/mL] | pH (of the solubility sample) [2] | Structure (SMILES) | solubility in water S [1] [µg/mL] |
| --- | --- | --- | --- |
| > 10000 | 4.88 | CCCCc1cc2ccccn2c1C(=O)c1ccc(CCCN(CCCC)CCCC)cc1 [compound 17, (2-butylindolizin-3-yl){4-[3-(dibutylamino)propyl]phenyl}methanone hydrochloride] |  |
| > 10000 | 4.05 | CCCN(CC)CCCCc1ccc(C(=O)c2c(CC)cc3ccccn23)cc1 [compound 31, (2-ethylindolizin-3-yl)(4-{4-[ethyl(propyl)amino]butyl}phenyl)methanone oxalate] |  |
| 2330 | 4.10 | CCCN(CCC)CCCCc1ccc(C(=O)c2c(C(C)C)cc3ccccn23)cc1 [compound 14, {4-[4-(dipropylamino)butyl]phenyl}(2-isopropylindolizin-3-yl)methanone oxalate] |  |
| 4070 | 5.27 | CCCCN(CCCC)CCCc1ccc(C(=O)c2c(CCC)cc3ccccn23)cc1 [compound 19, {4-[3-(dibutylamino)propyl]phenyl}(2-propylindolizin-3-yl)methanone hydrochloride] |  |
| 2950 | 4.02 | CCCCc1cc2ccccn2c1C(=O)c1ccc(CCCCN(CCCC)CCCC)cc1 [compound 20, (2-butylindolizin-3-yl){4-[4-(dibutylamino)butyl]phenyl}methanone oxalate] |  |
| 6900 | 4.08 | CCCCN(CCCC)CCCCc1ccc(C(=O)c2c(CC)cc3ccccn23)cc1 [compound 21, {4-[4-(dibutylamino)butyl]phenyl}(2-ethylindolizin-3-yl)methanone oxalate] |  |
| > 10000 | 5.94 | CCCc1cc2ccccn2c1C(=O)c1ccc(CCCN(CC)CCC)cc1 [compound 29, (4-{3-[ethyl(propyl)amino]propyl}phenyl)(2-propylindolizin-3-yl)methanone hydrochloride] |  |
| 1610 | 7.2 | CCCN(CCC)CCCc1ccc(C(=O)c2c(C)cc3ccccn23)cc1 [compound 13, {4-[3-(dipropylamino)propyl]phenyl}(2-methylindolizin-3-yl)methanone hydrochloride] |  |

The next lines start with the compound.

| Structure (SMILES) | solubility at 5 min [2] [µg/mL] | pH (of the solubility sample) [2] | solubility in water S [1] [µg/mL] |
| --- | --- | --- | --- |
| CCCCc1oc2ccc(NS(C)(=O)=O)cc2c1C(=O)c1ccc(OCCCN(CCCC)CCCC)cc1 [Dronedarone] |  |  | 247 (≈ 444 µM) |
| CCCCc1cc2ccccn2c1C(=O)c1ccc(CCCN2CCCCC2)cc1 [compound 42, (2-butylindolizin-3-yl)[4-(3-piperidin-1-ylpropyl)phenyl]methanone oxalate] | 1660 | 5.18 |  |
| CCCN(CC)CCCc1ccc(C(=O)c2c(C)cc3ccccn23)cc1 [compound 26, (4-{3-[ethyl(propyl)amino]propyl}phenyl)(2-methylindolizin-3-yl)methanone hydrochloride] | 1490 | 7.14 |  |
| CCCCc1cc2ccccn2c1C(=O)c1ccc(CCCN2C[C@@H](C)N[C@@H](C)C2)cc1 [compound 39, (2-butylindolizin-3-yl)(4-{3-[(3R,5S)-3,5-dimethylpiperazin-1-yl]propyl}phenyl)methanone hydrochloride] | > 10000 | 4.22 |  |
| CCCCc1cc2ccccn2c1C(=O)c1ccc(CCCN2C[C@@H](C)N(C)[C@@H](C)C2)cc1 [compound 40, (2-butylindolizin-3-yl)(4-{3-[(3R,5S)-3,4,5-trimethylpiperazin-1-yl]propyl}phenyl)methanone hydrochloride] | 9930 | 4.3 |  |
| CCCNCCCCc1ccc(C(=O)c2c(CCC)cc3ccccn23)cc1.Cl [compound 36, {4-[4-(propylamino)butyl]phenyl}(2-propylindolizin-3-yl)methanone hydrochloride] | 2240 | 6.3 |  |
